Measurements as given in ChEMBL document CHEMBL3352299, “Antiproliferative 4-(1,2,4-oxadiazol-5-yl)piperidine-1-carboxamides, a new tubulin inhibitor chemotype” (Bioorg Med Chem Lett, 2014).

Key:
Format in all cases: functional
A549 = test: Antiproliferative activity against human A549 cells after 3 days by fluorescence assay; settings: A549, 72 h
CAKI-1 = test: Antiproliferative activity against human CAKI-1 cells after 3 days by fluorescence assay; settings: CAKI-1, 72 h
U-251 = test: Antiproliferative activity against human U251 cells after 3 days by fluorescence assay; settings: U-251, 72 h
KM12 = test: Antiproliferative activity against human KM12 cells after 3 days by fluorescence assay; settings: KM12, 72 h
[1] = Antiproliferative activity against human LOXIMVI cells after 3 days by fluorescence assay; settings: LOX IMVI, 72 h
SW-620 = test: Antiproliferative activity against human SW620 cells after 3 days by fluorescence assay; settings: SW-620, 72 h
MDA-MB-468 = test: Antiproliferative activity against human MDA-MB-468 cells after 3 days by fluorescence assay; settings: MDA-MB-468, 72 h
[2] = Antiproliferative activity against human UACC62 cells after 3 days by fluorescence assay; settings: UACC-62, 72 h
MDA-MB-435 = test: Antiproliferative activity against human MDA-MB-435 cells after 3 days by fluorescence assay; settings: MDA-MB-435, 72 h
[3] = Antiproliferative activity against human NCI-ADR-RES cells after 3 days by fluorescence assay; settings: 72 h
NCI-H23 = test: Antiproliferative activity against human NCI-H23 cells after 3 days by fluorescence assay; settings: NCI-H23, 72 h
Malme-3M = test: Antiproliferative activity against human MALME-3M cells after 3 days by fluorescence assay; settings: 72 h
[4] = Antiproliferative activity against human PC3 cells after 3 days by fluorescence assay; settings: PC-3, 72 h
[5] = Antiproliferative activity against human OVCAR8 cells after 3 days by fluorescence assay; settings: OVCAR-8, 72 h
MDA-MB-231 = test: Antiproliferative activity against human MDA-MB-231 cells after 3 days by fluorescence assay; settings: MDA-MB-231, 72 h
MCF7 = test: Antiproliferative activity against human MCF7 cells after 3 days by fluorescence assay; settings: MCF7, 72 h
NCI-H460 = test: Antiproliferative activity against human NCI-H460 cells after 3 days by fluorescence assay; settings: NCI-H460, 72 h
[6] = Antiproliferative activity against human EKVX cells after 3 days by fluorescence assay; settings: 72 h
A498 = test: Antiproliferative activity against human A498 cells after 3 days by fluorescence assay; settings: A498, 72 h
786-0 = test: Antiproliferative activity against human 786-0 cells after 3 days by fluorescence assay; settings: 786-0, 72 h
[7] = Antiproliferative activity against human SF539 cells after 3 days by fluorescence assay; settings: SF-539, 72 h
[8] = Antiproliferative activity against human Hs 578T cells after 3 days by fluorescence assay; settings: 72 h
M14 = test: Antiproliferative activity against human M14 cells after 3 days by fluorescence assay; settings: M14, 72 h
HT-29 = test: Antiproliferative activity against human HT-29 cells after 3 days by fluorescence assay; settings: HT-29, 72 h
NCI-H226 = test: Antiproliferative activity against human NCI-H226 cells after 3 days by fluorescence assay; settings: NCI-H226, 72 h
[9] = Antiproliferative activity against human BT549 cells after 3 days by fluorescence assay; settings: BT-549, 72 h
SNB-75 = test: Antiproliferative activity against human SNB75 cells after 3 days by fluorescence assay; settings: SNB-75, 72 h
HOP-62 = test: Antiproliferative activity against human HOP62 cells after 3 days by fluorescence assay; settings: HOP-62, 72 h
TK-10 = test: Antiproliferative activity against human TK10 cells after 3 days by fluorescence assay; settings: TK-10, 72 h
[10] = Antiproliferative activity against human OVCAR4 cells after 3 days by fluorescence assay; settings: OVCAR-4, 72 h
SN12C = test: Antiproliferative activity against human SN12C cells after 3 days by fluorescence assay; settings: 72 h
[11] = Antiproliferative activity against human COLO205 cells after 3 days by fluorescence assay; settings: COLO 205, 72 h
DU-145 = test: Antiproliferative activity against human DU145 cells after 3 days by fluorescence assay; settings: DU-145, 72 h
[12] = Antiproliferative activity against human UO31 cells after 3 days by fluorescence assay; settings: UO-31, 72 h
ACHN = test: Antiproliferative activity against human ACHN cells after 3 days by fluorescence assay; settings: 72 h
IGROV-1 = test: Antiproliferative activity against human IGROV1 cells after 3 days by fluorescence assay; settings: IGROV-1, 72 h
[13] = Antiproliferative activity against human HCC2998 cells after 3 days by fluorescence assay; settings: HCC 2998, 72 h
[14] = Antiproliferative activity against human OVCAR3 cells after 3 days by fluorescence assay; settings: OVCAR-3, 72 h
SF-268 = test: Antiproliferative activity against human SF268 cells after 3 days by fluorescence assay; settings: SF-268, 72 h
T47D = test: Antiproliferative activity against human T47D cells after 3 days by fluorescence assay; settings: 72 h
SNB-19 = test: Antiproliferative activity against human SNB19 cells after 3 days by fluorescence assay; settings: SNB-19, 72 h
[15] = Antiproliferative activity against human OVCAR5 cells after 3 days by fluorescence assay; settings: OVCAR-5, 72 h
SK-MEL-2 = test: Antiproliferative activity against human SK-MEL-2 cells after 3 days by fluorescence assay; settings: SK-MEL-2, 72 h
HL-60(TB) = test: Antiproliferative activity against human HL-60(TB) cells after 3 days by fluorescence assay; settings: HL-60, 72 h
SK-MEL-28 = test: Antiproliferative activity against human SK-MEL-28 cells after 3 days by fluorescence assay; settings: SK-MEL-28, 72 h
[16] = Antiproliferative activity against human MOLT4 cells after 3 days by fluorescence assay; settings: MOLT-4, 72 h
K562 = test: Antiproliferative activity against human K562 cells after 3 days by fluorescence assay; settings: K562, 72 h
[17] = Antiproliferative activity against human SKOV3 cells after 3 days by fluorescence assay; settings: SK-OV-3, 72 h
[18] = Antiproliferative activity against human UACC257 cells after 3 days by fluorescence assay; settings: UACC-257, 72 h
SR = test: Antiproliferative activity against human SR cells after 3 days by fluorescence assay; settings: 72 h
[19] = Antiproliferative activity against human RXF393 cells after 3 days by fluorescence assay; settings: RXF 393, 72 h
[20] = Antiproliferative activity against human HOP92 cells after 3 days by fluorescence assay; settings: HOP-92, 72 h
[21] = Antiproliferative activity against human HCT15 cells after 3 days by fluorescence assay; settings: HCT-15, 72 h
[22] = Antiproliferative activity against human HCT116 cells after 3 days by fluorescence assay; settings: HCT-116, 72 h
CCRF-CEM = test: Antiproliferative activity against human CCRF-CEM cells after 3 days by fluorescence assay; settings: 72 h
SK-MEL-5 = test: Antiproliferative activity against human SK-MEL-5 cells after 3 days by fluorescence assay; settings: SK-MEL-5, 72 h
[23] = Antiproliferative activity against human SF295 cells after 3 days by fluorescence assay; settings: SF-295, 72 h
[24] = Antiproliferative activity against human RPMI8226 cells after 3 days by fluorescence assay; settings: RPMI-8226, 72 h
NCI-H322M = test: Antiproliferative activity against human NCI-H322M cells after 3 days by fluorescence assay; settings: 72 h
NCI-H522 = test: Antiproliferative activity against human NCI-H522 cells after 3 days by fluorescence assay; settings: NCI-H522, 72 h

Compound `COc1cccc(-c2noc(Nc3ccc(C)cc3)n2)c1OC` has a GI50 (A549) of 3160 nM, a GI50 (CAKI-1) of 3160 nM and a GI50 (U-251) of 3720 nM. It also gave a GI50 (KM12) of 1000 nM, a GI50 [1] of 3090 nM and a GI50 (SW-620) of 603 nM. The GI50 (MDA-MB-468) was 1100 nM, the GI50 [2] was 2880 nM and the GI50 (MDA-MB-435) was 219 nM. The GI50 [3] was 562 nM, the GI50 (NCI-H23) was 1740 nM and the GI50 (Malme-3M) was 1740 nM. For the same compound, the GI50 [4] was 3800 nM, the GI50 [5] was 3980 nM and the GI50 (MDA-MB-231) was 10700 nM. For the same compound, the GI50 (MCF7) was 1580 nM, the GI50 (NCI-H460) was 2090 nM and the GI50 [6] was 5500 nM. For the same compound, the GI50 (A498) was 2400 nM, the GI50 (786-0) was 4790 nM and the GI50 [7] was 1200 nM. The GI50 [8] was 3470 nM, the GI50 (M14) was 1350 nM and the GI50 (HT-29) was 525 nM. It also gave a GI50 (NCI-H226) of 7760 nM, a GI50 [9] of 6170 nM and a GI50 (SNB-75) of 1910 nM. For the same compound, the GI50 (HOP-62) was 2290 nM, the GI50 (TK-10) was 4470 nM and the GI50 [10] was 6310 nM. For the same compound, the GI50 (SN12C) was 6030 nM, the GI50 [11] was 2570 nM and the GI50 (DU-145) was 3160 nM. For the same compound, the GI50 [12] was 5370 nM, the GI50 (ACHN) was 7080 nM and the GI50 (IGROV-1) was 4790 nM. The GI50 [13] was 3630 nM, the GI50 [14] was 1150 nM and the GI50 (SF-268) was 4790 nM. The GI50 (T47D) was 3630 nM, the GI50 (SNB-19) was 3800 nM and the GI50 [15] was 11200 nM. It also gave a GI50 (SK-MEL-2) of 2290 nM, a GI50 (HL-60(TB)) of 676 nM and a GI50 (SK-MEL-28) of 2340 nM. The GI50 [16] was 4680 nM, the GI50 (K562) was 245 nM and the GI50 [17] was 2880 nM. It also gave a GI50 [18] of 2820 nM, a GI50 (SR) of 234 nM and a GI50 [19] of 1320 nM. For the same compound, the GI50 [20] was 3890 nM, the GI50 [21] was 1780 nM and the GI50 [22] was 1150 nM. It also gave a GI50 (CCRF-CEM) of 2340 nM, a GI50 (SK-MEL-5) of 3090 nM and a GI50 [23] of 1100 nM. The GI50 [24] was 2950 nM, the GI50 (NCI-H322M) was 5130 nM and the GI50 (NCI-H522) was 891 nM.
